Experimental data reported in patent US20250161245A1, “A MIXTURE OF UREA, BIURET AND N-CONTAINING BY-PRODUCTS CREATED DURING BIURET PRODUCTION AS A DIETARY NON-PROTEIN NITROGEN-SOURCE FOR RUMINANTS AND USES THEREOF” (Yara International ASA, priority 2022, published 2025).

What was measured:
ruminal microorganisms = assay: dual-flow continuous culture fermenters simulating rumen fermentation (Example 2); format: cell-based, Holstein dairy cows; details: NPN 0.51 wt. % urea or 0.55 wt. % UB of diet DM
Description: In this example, an in vitro assay was performed using dual-flow continuous culture fermenters, aiming to simulate rumen fermentation.
Eight 1320 ml dual-flow continuous culture fermenters were used in two replicated periods. Each period consisted out of 5 days for adaptation of the ruminal fluid to the treatments and 3 days for sampling. On the first day of each period, all fermenters were inoculated with undiluted ruminal fluid filtered through two layers of cheesecloth to remove the feed particles. The fermentation conditions were constant, i.e. • a temperature of 39° C., • a pH of 6.4±0.05 by infusion of 3 N HCl or 5 N NaOH, • anaerobiosis with continued infusion of N2 gas at a rate of 40 ml/min, and • continued infusion of artificial saliva to obtain liquid and solid dilution rates of 10%/h and 5%/h, respectively.
The fermenters were fed 95 grams/day of dry matter of a diet formulated to meet or exceed current nutrients recommendations for lactating dairy cows, i.e. • 166 g/kg crude protein (CP), • 323 g/kg neutral detergent fiber (NDF), and • 201 g/kg acid detergent fiber (ADF),
And were fed in three daily administrations, i.e. at 7, 15 and 23 o'clock with a forage: concentrate diet in a range of 53:47.
Ruminal fluid was taken from two Holstein dairy cows fitted with ruminal cannulas fed with a 60:40 forage:concentrate diet with alfalfa and cracked grain (11 kg dry matter/cow/day). The afternoon before the ruminal extraction, the ruminant animals were not fed.
The NPN-dietary treatments were as follows: • Control: basal diet to which 0.51 wt. % urea was added, with wt. % on dry matter basis, • Diet: basal diet to which 0.55 wt. % of the mixture according to the present disclosure, with composition as in example 1, was added, with wt. % on dry matter basis.
On the second day of sampling, 4 ml of filtered fermenter fluid was taken 2 hours after the morning feeding to determine VFA-concentrations.
During sampling days, the collection vessels were maintained at 4° C. to prevent microbial activity. Solid and liquid effluents from 3 sampling days were composited and mixed within the fermenter and homogenized. Subsamples were taken for the analyses of the volatile fatty acids (VFA). The remainder of the sample was lyophilized (freeze drying) and the dry samples were analyzed for DM, ash, N and purines to calculate bacterial nitrogen and organic matter content (OM).
Bacterial cells were obtained from the fermenter flasks the last day of each experimental period. Solid and liquid associated bacteria were isolated using a combination several detachment procedures selected to obtain the maximum detachment without affecting the cell integrity. The bacterial cells were lyophilized and the dry samples were analyzed for dry matter (DM), ash, N and purines to calculate bacterial nitrogen.
Effluent dry matter (DM) was determined by lyophilizing 300 ml aliquots in triplicate. The DM content of the diets and bacterial samples were determined by drying samples for 24 hours in an 103° C. forced air oven (see AOAC, 1990; method 950.01).
Dry samples of diets, effluents and bacteria were ashed overnight at 550° C. in a muffle furnace (see AOAC, 1990, method 976.05) and organic matter (OM) was determined by difference. Total N of diets, effluents and bacterial samples were determined by a Kjeldhal method (AOAC, 1990; method 976.05). Sample crude protein (CP) was calculated as N×6.25. Effluent CP was determined in liquid samples. Crude protein degradation was calculated as the difference between CP in the diet minus CP in the effluent and expressed as wt. % of DM. The EMPS was determined by dividing bacterial N by fermented organic matter.
The fiber components of the diets and the effluents were analyzed sequentially using a thermostable alpha-amylase and sodium sulfite and expressed without residual ash.
The samples for the VFA-analysis were prepared as described by Jouany, J. P., and J. Senaud. […]

rumen microbiota = assay: Gas Production Test, in vitro rumen fermentation model (Example 1); format: cell-based; details: 15 mg N per flask, 72 hours incubation
Description: The in vitro model used to simulate rumen digestion and utilization of the products is the Gas Production Test protocol, adapted for protein digestibility, as described in more detail in the following paragraph.
Approximately 1 liter of rumen fluid was collected from two different rumen-fistulated animals in the morning. Rumen fluid was strained through a cheesecloth, kept at 39° C. under CO2 and then diluted 1:19 with a nitrogen-free buffer and mineral solution containing 10.03 g NaHCO3, 1.43 g Na2HPO4, 1.55 g KH2PO4, 0.15 g MgSO4·7H2O, 0.52 g Na2S, 0.017 g CaCl2·2H2O, 0.015 g MnCl2·4H2O, 0.002 g […], 0.012 g FeCl3·6H2O and 0.125 mg resazurin per liter.
To ensure the rumen fluid was depleted of free nitrogen and to ensure nitrogen would be the limiting factor for the microbial growth at the start of the experiment, the buffered rumen fluid was pre-incubated for 4 hours at 39° C. with a carbohydrate overload of glucose, xylose and soluble starch, each at 3.33 g/l. During this pre-incubation, all nitrogen available in the rumen fluid would be incorporated into bacterial protein and other bacterial nitrogen-containing components.
Each product was weighed into different glass bottles on an isonitrogenous base, providing 15 mg N per flask. Then, 60 ml of the pre-incubated buffered rumen fluid was added, under continuous flushing with CO2. Flasks were closed with rubber stoppers and placed in a shaking water bath with 50 movements per minute at 39° C. to start the incubation period. The gas production of each flask was recorded continuously for 72 hours using a fully automated system. All test products including a blank (i.e. no product added to the flask of rumen fluid) were tested in one run in triplicate.
The cumulative gas production was measured continuously for 72 hours.

NC(N)=O [Urea, urea]
Acetate to propionate ratio (ruminal microorganisms): 3.5
CP degradation (ruminal microorganisms): 47.7 % of dry matter
EMPS (ruminal microorganisms): 35.7 g bacterial N/kg of fermented organic matter
True digestibility DM (ruminal microorganisms): 53.53 wt. % of DM
True digestibility OM (ruminal microorganisms): 52.95 wt. % of DM
VFA Acetate (ruminal microorganisms): 62.92
VFA Propionate (ruminal microorganisms): 18.18
maximum gas production rate (rumen microbiota): 17 mL/h
time after which gas production stopped / maximum cumulative gas production (end level) was reached (rumen microbiota): 30 h
lag period of cumulative gas production (rumen microbiota; buffered rumen fluid, 39° C.): approximately 5 hours
